# Earlier results as cited in paper PMC2810227, “3-O-Methylfunicone, a Selective Inhibitor of Mammalian Y-Family DNA Polymerases from an Australian Sea Salt Fungal Strain” (Marine Drugs, 2009).
# Legend:
# pol α = tested on: pol α; set-up: method as in PMID 467434; details: not competing with the other three deoxynucleoside triphosphates; cited from earlier work
# [1] = tested on: family B pols, such as pols α, δ and ɛ; set-up: method as in PMID 467434; details: cited from earlier work
smiles,measurement,setting,value
C[C@@]1(CO)[C@H](O)CC[C@@]2(C)[C@H]1CC[C@H]1C[C@@H]3C[C@@]12CC[C@]3(O)CO [aphidicolin],mode of inhibition of pol α with respect to individual deoxynucleoside triphosphates,pol α,competing with dCTP
same,mode of inhibition with the DNA template-primer,[1]; activated DNA,uncompetitive
same,mode of inhibition with respect to the dNTP substrate,[1],competitive
